According to patent publication US9156796B2, “Benzoimidazole-carboxylic acid amide derivatives as APJ receptor modulators” (SANOFI, priority 2013, dated 2015):

The compounds below were run against T1, human apelin receptor (Homo sapiens, UniProt P35414) (assay: Determination of agonism on the human apelin receptor by a calcium fluorescence assay (FLIPR)). Conditions: HEK293 cells stably transfected with human apelin receptor and Giaq protein, Fluo-4 calcium fluorescence, read-out: EC50 (APJ agonism).
T1 construct: expressed in transfected cells
T1 sequence (P35414 1-380): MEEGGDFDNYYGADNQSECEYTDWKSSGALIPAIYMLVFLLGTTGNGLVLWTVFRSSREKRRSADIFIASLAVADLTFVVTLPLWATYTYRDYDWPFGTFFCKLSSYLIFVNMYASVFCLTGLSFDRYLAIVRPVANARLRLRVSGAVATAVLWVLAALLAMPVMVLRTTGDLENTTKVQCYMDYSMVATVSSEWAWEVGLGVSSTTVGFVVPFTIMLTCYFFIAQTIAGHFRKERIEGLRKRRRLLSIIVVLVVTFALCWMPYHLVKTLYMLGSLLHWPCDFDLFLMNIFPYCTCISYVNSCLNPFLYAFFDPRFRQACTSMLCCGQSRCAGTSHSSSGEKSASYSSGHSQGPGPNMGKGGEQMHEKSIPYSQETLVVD
Type: cell-based
How it was run: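 HEK293 cells stably co-expressing human apelin receptor and promiscuous Giaq, loaded 1 h at 37 °C with Fluo-4 (4 μM) in probenecid-containing Hepes buffer, pH 7.4. Compounds, at least 7 concentrations in triplicate, added in FLIPR Tetra; peak calcium fluorescence normalized to 1 μM apelin-13 as 100% to derive EC50.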

Structure (SMILES)	EC50 [µM]
CCC(CC)n1c(Cc2cccs2)nc2cc(C(=O)NC3(C(=O)O)CCCC3)ccc21 [Example 6, 1-{[1-(1-Ethyl-propyl)-2-thiophen-2-ylmethyl-1H-benzoimidazole-5-carbonyl]-amino}-cyclopentanecarboxylic acid]	3.82
CCC(CC)n1c(Cc2ccoc2)nc2cc(C(=O)N[C@@H](CC(C)C)C(=O)O)ccc21 [Example 118, (S)-2-{[1-(1-Ethyl-propyl)-2-furan-3-ylmethyl-1H-benzoimidazole-5-carbonyl]-amino}-4-methyl-pentanoic acid]	0.222
CCC(CC)n1c(Cc2cccs2)nc2cc(C(=O)N[C@@H](CC(C)C)C(=O)NCC3CN(Cc4ccc(F)cc4)CCO3)ccc21 (stereo partly drawn) [Example 356, 1-(1-Ethyl-propyl)-2-thiophen-2-ylmethyl-1H-benzoimidazole-5-carboxylic acid ((S)-1-{[4-(4-fluoro-benzyl)-morpholin-2-ylmethyl]-carbamoyl}-3-methyl-butyl)-amide]	4.26
CCC(CC)n1c(Cc2cccs2)nc2cc(C(=O)N[C@H](CO)C3CCCCC3)ccc21 [Example 204, 1-(1-Ethyl-propyl)-2-thiophen-2-ylmethyl-1H-benzoimidazole-5-carboxylic acid ((S)-1-cyclohexyl-2-hydroxy-ethyl)-amide]	1.99
CCC(CC)n1c(Cc2cccs2)nc2cc(C(=O)NC(C(N)=O)c3ccccc3)ccc21 (stereo not shown) [Example 170, 1-(1-Ethyl-propyl)-2-thiophen-2-ylmethyl-1H-benzoimidazole-5-carboxylic acid (carbamoyl-phenyl-methyl)-amide]	10.1
CCC(CC)n1c(Cc2cccs2)nc2cc(C(=O)N[C@@H](CC(C)C)C(=O)N3CCN(C)CC3)ccc21 [Example 225, 1-(1-Ethyl-propyl)-2-thiophen-2-ylmethyl-1H-benzoimidazole-5-carboxylic acid [(S)-3-methyl-1-(4-methyl-piperazine-1-carbonyl)-butyl]-amide]	0.775
CCC(CC)n1c(Cc2cccs2)nc2cc(C(=O)N[C@@H](CC(C)C)C(=O)NC3CCN(Cc4c(OC)cccc4OC)CC3)ccc21 [Example 288, 1-(1-Ethyl-propyl)-2-thiophen-2-ylmethyl-1H-benzoimidazole-5-carboxylic acid {(S)-1-[1-(2,6-dimethoxy-benzyl)-piperidin-4-ylcarbamoyl]-3-methyl-butyl}-amide]	0.512
CCC(CC)n1c(Cc2cccs2)nc2cc(C(=O)N[C@@H](CC(C)C)C(=O)N3CCN(c4ccccn4)CC3)ccc21 [Example 312, 1-(1-Ethyl-propyl)-2-thiophen-2-ylmethyl-1H-benzoimidazole-5-carboxylic acid [(S)-3-methyl-1-(4-pyridin-2-yl-piperazine-1-carbonyl)-butyl]-amide]	2.96
CCC(CC)n1c(CC2CCCC2)nc2cc(C(=O)NC(CC(C)C)C(N)=O)ccc21 (stereo not shown) [Example 169, 2-Cyclopentylmethyl-1-(1-ethyl-propyl)-1H-benzoimidazole-5-carboxylic acid (1-carbamoyl-3-methyl-butyl)-amide]	6.65
CCC(CC)n1c(Cc2cccs2)nc2cc(C(=O)N[C@@H](CC(C)C)C(=O)NCc3ccccc3OC)ccc21 [Example 238, 1-(1-Ethyl-propyl)-2-thiophen-2-ylmethyl-1H-benzoimidazole-5-carboxylic acid [(S)-1-(2-methoxy-benzylcarbamoyl)-3-methyl-butyl]-amide]	6.55
CCC(CC)n1c(Cc2cccs2)nc2cc(C(=O)NC(CC3CCC(C)CC3)C(=O)O)ccc21 (stereo not shown) [Example 36, 2-{[1-(1-Ethyl-propyl)-2-thiophen-2-ylmethyl-1H-benzoimidazole-5-carbonyl]-amino}-3-(4-methyl-cyclohexyl)-propionic acid]	1.26
CCC(CC)n1c(Cc2cccs2)nc2cc(C(=O)N[C@@H](CC(C)C)C(=O)NCC3CCCN(CC)C3)ccc21 (stereo partly drawn) [Example 303, 1-(1-Ethyl-propyl)-2-thiophen-2-ylmethyl-1H-benzoimidazole-5-carboxylic acid {(S)-1-[(1-ethyl-piperidin-3-ylmethyl)-carbamoyl]-3-methyl-butyl}-amide]	0.214
C[C@@H]1CCCC[C@H]1n1c(Cc2cccs2)nc2cc(C(=O)NC3(C(=O)O)CCCCC3)ccc21 [Example 38, 1-{[1-((1R,2R)-2-Methyl-cyclohexyl)-2-thiophen-2-ylmethyl-1H-benzoimidazole-5-carbonyl]-amino}-cyclohexanecarboxylic acid]	0.115
CCCCC(CC(=O)O)NC(=O)c1ccc2c(c1)nc(Cc1cccs1)n2[C@@H]1CCCC[C@H]1C (single isomer, unassigned) [Example 461]	3.43
CCC(CC)n1c(CC2CCCCC2)nc2cc(C(=O)N[C@@H](CC3CCCCC3)C(=O)O)ccc21 [Example 141, (S)-3-Cyclohexyl-2-{[2-cyclohexylmethyl-1-(1-ethyl-propyl)-1H-benzoimidazole-5-carbonyl]-amino}-propionic acid]	23
CCC(CC)n1c(Cc2cccs2)nc2cc(C(=O)N[C@@H](CC(C)C)CS(=O)(=O)c3nnc[nH]3)ccc21 [Example 484, 1-(1-Ethyl-propyl)-2-thiophen-2-ylmethyl-1H-benzoimidazole-5-carboxylic acid [(S)-3-methyl-1-(4H-[1,2,4]triazole-3-sulfonylmethyl)-butyl]-amide]	0.014
CCC(CC)n1c(Cc2ccco2)nc2cc(C(=O)N[C@@H](CC(C)C)C(=O)O)ccc21 [Example 81, (S)-2-{[1-(1-Ethyl-propyl)-2-furan-2-ylmethyl-1H-benzoimidazole-5-carbonyl]-amino}-4-methyl-pentanoic acid]	< 0.041
CCC(CC)n1c(Cc2cccs2)nc2cc(C(=O)N[C@@H](CC(C)C)C(=O)N3CCC[C@H]3COC)ccc21 [Example 384, 1-(1-Ethyl-propyl)-2-thiophen-2-ylmethyl-1H-benzoimidazole-5-carboxylic acid [(S)-1-((S)-2-methoxymethyl-pyrrolidine-1-carbonyl)-3-methyl-butyl]-amide]	1.63
CC(C)C[C@H](NC(=O)c1ccc2c(c1)nc(Cc1ccsc1)n2C1CCCCC1C)C(=O)O (stereo partly drawn) [Example 139, (S)-4-Methyl-2-{[1-(2-methyl-cyclohexyl)-2-thiophen-3-ylmethyl-1H-benzoimidazole-5-carbonyl]-amino}-pentanoic acid]	0.285
CCC(CC)n1c(Cc2cccs2)nc2cc(C(=O)NC(CC(C)C)C(C)(C)C(=O)O)ccc21 (stereo not shown) [Example 62, 3-{[1-(1-Ethyl-propyl)-2-thiophen-2-ylmethyl-1H-benzoimidazole-5-carbonyl]-amino}-2,2,5-trimethyl-hexanoic acid]	0.193
CCC(CC)n1c(Cc2cccs2)nc2cc(C(=O)N[C@@H](CC(C)C)C(=O)N3CCCN(Cc4ccc(F)cc4)CC3)ccc21 [Example 324, 1-(1-Ethyl-propyl)-2-thiophen-2-ylmethyl-1H-benzoimidazole-5-carboxylic acid {(S)-1-[4-(4-fluoro-benzyl)-[1,4]diazepane-1-carbonyl]-3-methyl-butyl}-amide]	16.8
CCC(C)NC(=O)[C@H](CC(C)C)NC(=O)c1ccc2c(c1)nc(Cc1cccs1)n2C(CC)CC (stereo partly drawn) [Example 218, 1-(1-Ethyl-propyl)-2-thiophen-2-ylmethyl-1H-benzoimidazole-5-carboxylic acid ((S)-1-sec-butylcarbamoyl-3-methyl-butyl)-amide]	2.01
CCC[C@@H](CO)NC(=O)c1ccc2c(c1)nc(Cc1cccs1)n2C(CC)CC [Example 201, 1-(1-Ethyl-propyl)-2-thiophen-2-ylmethyl-1H-benzoimidazole-5-carboxylic acid ((S)-1-hydroxymethyl-butyl)-amide]	0.334
CCC(CC)n1c(Cc2cccs2)nc2cc(C(=O)N[C@@H](CC(C)C)C(=O)Nc3ccc(CN4CCC(C)CC4)cc3)ccc21 [Example 283, 1-(1-Ethyl-propyl)-2-thiophen-2-ylmethyl-1H-benzoimidazole-5-carboxylic acid {(S)-3-methyl-1-[4-(4-methyl-piperidin-1-ylmethyl)-phenylcarbamoyl]-butyl}-amide]	4.5
CCC(CC)n1c(Cc2cccs2)nc2cc(C(=O)N[C@H](CC(=O)O)[C@@H](C)CC)ccc21 [Example 54, (3R,4S)-3-{[1-(1-Ethyl-propyl)-2-thiophen-2-ylmethyl-1H-benzoimidazole-5-carbonyl]-amino}-4-methyl-hexanoic acid]	0.115
CCC(CC)n1c(Cc2cccs2)nc2cc(C(=O)N[C@@H](CC(C)C)[C@H](O)C(=O)O)ccc21 [Example 68, (2S,3S)-3-{[1-(1-Ethyl-propyl)-2-thiophen-2-ylmethyl-1H-benzoimidazole-5-carbonyl]-amino}-2-hydroxy-5-methyl-hexanoic acid]	0.018
CCC(CC)n1c(Cc2cccs2)nc2cc(C(=O)N[C@@H](CC(C)C)C(=O)NC3COC4(CCCC4)C3)ccc21 (stereo partly drawn) [Example 398, 1-(1-Ethyl-propyl)-2-thiophen-2-ylmethyl-1H-benzoimidazole-5-carboxylic acid [(S)-3-methyl-1-(1-oxa-spiro[4.4]non-3-ylcarbamoyl)-butyl]-amide]	5.46
CCC(CC)n1c(Cc2cccs2)nc2cc(C(=O)N[C@@H](CC(C)C)C(=O)N3CC[C@H](N(C)C)C3)ccc21 [Example 322, 1-(1-Ethyl-propyl)-2-thiophen-2-ylmethyl-1H-benzoimidazole-5-carboxylic acid [(S)-1-((S)-3-dimethylamino-pyrrolidine-1-carbonyl)-3-methyl-butyl]-amide]	0.244
